The record followed here is ChEMBL document CHEMBL1201862, “PubChem BioAssay data set” (2004).

Test systems include A498; A549; BT-549; CAKI-1; EKVX; HCT-15; HOP-92; K562; MDA-N; NCI-H522; OVCAR-3; OVCAR-4; OVCAR-8; PC-3; RPMI-8226; SF-539; SNB-19; UACC-62; CCRF-CEM.
Experiment in all cases: NCI tumour cell line growth inhibition, 48 h

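Cells were grown in 96-well plates and exposed to each compound for 48 hours at five concentrations; endpoints were interpolated linearly between bracketing concentrations, or set to the highest concentration if not reached. Here, GI50 denotes the concentration required for 50% inhibition of growth.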 Calls of active or inactive are those of the source. Rule as the data show it: active = GI50 up to about 1.1 µM and inactive = higher. Where only a bound is given, the exact number is not on record here.

For `c1cncc(CNCCN2CCNCC2)c1`, the GI50 is > 100 µM (inactive) in the assay with A498; > 100 µM (inactive) in the assay on A549; > 100 µM (inactive) in the assay with BT-549; > 100 µM (inactive) with CAKI-1; > 100 µM (inactive) in the assay with EKVX; above 100 µM with HCT-15. Besides, the GI50 in the assay with HOP-92, with K562, in the assay on MDA-N, with NCI-H522, with OVCAR-3 and in the assay on OVCAR-4 was > 100 µM (inactive) in each case. For the same molecule, the GI50 with OVCAR-8, in the assay with PC-3, in the assay on RPMI-8226, with SF-539, in the assay on SNB-19 and in the assay on UACC-62 was > 100 µM (inactive) each time.

On to `CC1OC(O[C@H]2C3C=CO[C@@H](OC4OC(CO)C(O)C(O)C4O)C3[C@@]3(COC(=O)/C=C/c4ccccc4)O[C@@H]23)C(O)C(O)C1O` (stereo partly specified), for which the GI50 with A498, in the assay on A549, with BT-549, in the assay with CAKI-1, in the assay with CCRF-CEM and in the assay with EKVX was > 100 µM (inactive) each time. Moreover, the GI50 is above 100 µM with HCT-15; > 100 µM (inactive) in the assay on HOP-92; > 100 µM (inactive) with K562; > 100 µM (inactive) in the assay on MDA-N; > 100 µM (inactive) in the assay with NCI-H522; > 100 µM (inactive) in the assay on OVCAR-3. Also, the GI50 in the assay with OVCAR-4, in the assay with OVCAR-8, in the assay with PC-3, in the assay on RPMI-8226, in the assay on SNB-19 and in the assay on UACC-62 was > 100 µM (inactive) each time.

As for `O[C@@]12Cc3c([nH]c4ccccc34)[C@@H]3Oc4c(-c5ccccc5)ccc5c4[C@@]31CCN(CC1CC1)[C@@H]2C5`, the GI50 in the assay on A498 was 1.47 µM (inactive); in the assay on A549, 1.89 µM (inactive); in the assay on BT-549, 10.8 µM (inactive); in the assay with CAKI-1, 2.97 µM (inactive); in the assay with CCRF-CEM, 2.92 µM (inactive); in the assay on EKVX, 2.01 µM (inactive). In addition, the GI50 in the assay with HCT-15 was 1.95 µM; in the assay on HOP-92, 5.19 µM (inactive); with K562 it was 2.33 µM (inactive); in the assay on MDA-N it was 1.73 µM (inactive); with NCI-H522, 1.77 µM (inactive); with OVCAR-3, 1.49 µM (inactive). Besides, the GI50 was 2.71 µM (inactive) in the assay on OVCAR-4; 2.22 µM (inactive) in the assay with OVCAR-8; 1.84 µM (inactive) with PC-3; 3.65 µM (inactive) in the assay on RPMI-8226; 1.88 µM (inactive) with SNB-19; 1.8 µM (inactive) in the assay on UACC-62.

For the molecule `O=C1C(Cl)=C(Cl)C(Cl)(Cl)C(Cl)C1(Cl)Cl` (stereo unspecified), the GI50 in the assay on A498 was 15.2 µM (inactive); with A549 it was 20.9 µM (inactive); in the assay on BT-549, 19.7 µM (inactive); with CCRF-CEM, 27.3 µM (inactive); in the assay on EKVX, 20.8 µM (inactive); with HCT-15, 29.6 µM. Also, the GI50 with HOP-92 was 16.9 µM (inactive); in the assay on K562, 24.6 µM (inactive); in the assay with MDA-N, 23.7 µM (inactive); in the assay with NCI-H522 it was 13.7 µM (inactive); in the assay on OVCAR-3, 17.7 µM (inactive); in the assay with OVCAR-8 it was 32.2 µM (inactive). Also, the GI50 with PC-3 is 25 µM (inactive); in the assay on RPMI-8226 it was 19.6 µM (inactive); in the assay on SF-539 it was 17.5 µM (inactive); in the assay on SNB-19, 22.4 µM (inactive); in the assay with UACC-62, 16.7 µM (inactive).

With `COc1ccc(/C=C2\CCC(CNc3ccc(OC)cc3)C2=O)cc1` (stereo unspecified), the GI50 in the assay with A498 was 30.1 µM (inactive); in the assay on A549, 36.4 µM (inactive); with BT-549, 13.7 µM (inactive); with CAKI-1, 18.7 µM (inactive); in the assay with CCRF-CEM, 3.37 µM (inactive); in the assay with EKVX, 30.3 µM (inactive). Besides, the GI50 in the assay on HCT-15 was 6.78 µM; in the assay with HOP-92 it was 18.9 µM (inactive); in the assay on MDA-N, 14.1 µM (inactive); in the assay on NCI-H522 it was 5.58 µM (inactive); in the assay with OVCAR-3 it was 17.4 µM (inactive); in the assay on OVCAR-4 it was 23.4 µM (inactive). The GI50 was 17.7 µM (inactive) in the assay on OVCAR-8; 16.8 µM (inactive) in the assay with PC-3; 20.4 µM (inactive) with SF-539; > 42.6 µM (inactive) in the assay on SNB-19; 17.1 µM (inactive) in the assay on UACC-62.

Regarding `CCOC(=O)c1[nH]c2cccc3c2c1CC(Br)C3=O` (stereo unspecified), the GI50 in the assay with A498 is 17.7 µM (inactive); in the assay on A549, 17.3 µM (inactive); with BT-549 it was 16.9 µM (inactive); in the assay on CAKI-1, 11.2 µM (inactive); with CCRF-CEM, 3.83 µM (inactive); in the assay on EKVX, 17.5 µM (inactive). Besides, the GI50 is 3.72 µM in the assay on HCT-15; 16.7 µM (inactive) in the assay on HOP-92; 11.6 µM (inactive) with MDA-N; 13.2 µM (inactive) in the assay on OVCAR-3; 16.6 µM (inactive) with OVCAR-8; 15.1 µM (inactive) in the assay with PC-3. Also, the GI50 was 5.02 µM (inactive) in the assay on RPMI-8226, 16.4 µM (inactive) with SF-539 and 15.7 µM (inactive) in the assay on SNB-19.

`O=C1/C(=C/Cc2ccco2)N=C(c2ccccc2)N1c1nc2c(Cl)cc(Cl)cc2s1`: the GI50 was 15.2 µM (inactive) in the assay with A498; 26.4 µM (inactive) in the assay on A549; 26 µM (inactive) in the assay on BT-549; 32.6 µM (inactive) in the assay with CAKI-1; 17.9 µM (inactive) in the assay on CCRF-CEM; 15 µM (inactive) in the assay on EKVX. Moreover, the GI50 in the assay with HCT-15 is 27.9 µM; in the assay with HOP-92, 27.8 µM (inactive); in the assay on K562, 25.1 µM (inactive); in the assay on MDA-N it was 20.9 µM (inactive); with OVCAR-3 it was 22.5 µM (inactive); in the assay with OVCAR-4, 21.3 µM (inactive). For the same molecule, the GI50 with OVCAR-8 is 36 µM (inactive); in the assay on PC-3, 28.3 µM (inactive); with RPMI-8226, 12.4 µM (inactive); in the assay on SF-539, 23 µM (inactive); in the assay on SNB-19 it was 34.3 µM (inactive); with UACC-62, 27.5 µM (inactive).

Regarding `CC(C)(C)CN1[C@@H]2CCCC[C@H]2N(CC(C)(C)C)P1(=O)C(O)/C=C/c1ccccc1` (stereo partly specified), the GI50 with A498 was 28.6 µM (inactive); in the assay with A549, 25.1 µM (inactive); in the assay on BT-549, 74.1 µM (inactive); in the assay with CAKI-1, 59.8 µM (inactive); in the assay with CCRF-CEM, 34.3 µM (inactive); with EKVX it was 50.1 µM (inactive). The GI50 with HCT-15 is 18.5 µM; in the assay on HOP-92, 28.8 µM (inactive); in the assay with K562 it was 42.6 µM (inactive); in the assay with MDA-N it was 35.3 µM (inactive); with NCI-H522 it was 26.7 µM (inactive); with OVCAR-3 it was 34.6 µM (inactive). The GI50 is 45.4 µM (inactive) in the assay on OVCAR-4; 62.5 µM (inactive) in the assay with OVCAR-8; 37.8 µM (inactive) in the assay with PC-3; 19.5 µM (inactive) in the assay with RPMI-8226; 26.8 µM (inactive) with SNB-19; 35.2 µM (inactive) with UACC-62.

Take `Cc1c2c(n3c(nc4ccccc43)c1C#N)N(c1ccc(Cl)cc1)CC2`: the GI50 in the assay on A498, in the assay on A549, with BT-549, in the assay with CAKI-1, with CCRF-CEM and in the assay with EKVX was > 100 µM (inactive) each time. In addition, the GI50 in the assay with HCT-15 is above 100 µM; in the assay on HOP-92, > 100 µM (inactive); with K562 it was > 100 µM (inactive); in the assay on MDA-N, > 100 µM (inactive); with NCI-H522, > 100 µM (inactive); in the assay with OVCAR-3, > 100 µM (inactive). Further, the GI50 in the assay on OVCAR-4, in the assay on OVCAR-8, in the assay on PC-3, with SF-539, in the assay with SNB-19 and in the assay on UACC-62 was > 100 µM (inactive) in each case.

As for `CON(C)C(=O)[C@H]1C[C@@]1(C)CO`, the GI50 in the assay with A498, in the assay on A549, with BT-549, with CAKI-1, in the assay with CCRF-CEM and in the assay on EKVX was > 100 µM (inactive) each time. Also, the GI50 was above 100 µM in the assay on HCT-15; > 100 µM (inactive) in the assay on HOP-92; > 100 µM (inactive) in the assay on K562; > 100 µM (inactive) with MDA-N; > 100 µM (inactive) with OVCAR-3; > 100 µM (inactive) in the assay on OVCAR-4. For the same molecule, the GI50 with OVCAR-8, in the assay with PC-3, with SNB-19 and in the assay on UACC-62 was > 100 µM (inactive) in each case.

On to `CON(C)C(=O)C(C)NC(=O)OC(C)(C)C` (stereo unspecified), for which the GI50 in the assay with A498 was > 100 µM (inactive); with A549, > 100 µM (inactive); in the assay on BT-549, > 100 µM (inactive); in the assay on CCRF-CEM it was > 100 µM (inactive); in the assay on EKVX, > 100 µM (inactive); with HCT-15 it was above 100 µM. Also, the GI50 in the assay with HOP-92, with K562, in the assay on MDA-N, in the assay with OVCAR-3, in the assay with OVCAR-8 and in the assay with PC-3 was > 100 µM (inactive) each time. Also, the GI50 with RPMI-8226, with SF-539, in the assay with SNB-19 and in the assay on UACC-62 was > 100 µM (inactive) each time.

On to `Cc1nc2ccccc2n1Cc1nnc(-c2ccccc2)o1`, for which the GI50 is > 100 µM (inactive) in the assay with A498; 52.4 µM (inactive) in the assay on A549; > 100 µM (inactive) in the assay on BT-549; > 100 µM (inactive) in the assay on CCRF-CEM; > 100 µM (inactive) in the assay with EKVX; above 100 µM in the assay with HCT-15. In addition, the GI50 was > 100 µM (inactive) in the assay on HOP-92; 33.9 µM (inactive) with K562; 70.3 µM (inactive) with MDA-N; > 100 µM (inactive) in the assay on NCI-H522; > 100 µM (inactive) with OVCAR-3; > 100 µM (inactive) with OVCAR-8. For the same molecule, the GI50 in the assay on PC-3 was > 100 µM (inactive); in the assay with RPMI-8226, 75 µM (inactive); in the assay with SF-539, 27.2 µM (inactive); with SNB-19, > 100 µM (inactive); in the assay on UACC-62 it was > 100 µM (inactive).
